Drawing on patent US20240409585A1, “MACROCYCLIC IMMUNOMODULATORS” (priority 2021, published 2024), this text covers IC50 for eleven compounds.

The structures appear in SMILES notation. Bridge positions count the residues as written; N and C are the ends. Square brackets hold non-standard residues; d marks the D form. Peptide text beside a SMILES is read from it. * marks the point of attachment. ξ: configuration not given here. Phe(4-COOH) = N[C@@H](Cc1ccc(C(=O)O)cc1)C(=O)O; Bip = N[C@@H](Cc1ccc(-c2ccccc2)cc1)C(=O)O; Phe(3-Me) = Cc1cccc(C[C@H](N)C(=O)O)c1; Val(3-OH) = CC(C)(O)[C@H](N)C(=O)O; 4Pal = N[C@@H](Cc1ccncc1)C(=O)O; 2Thi = N[C@@H](Cc1cccs1)C(=O)O; Cha = N[C@@H](CC1CCCCC1)C(=O)O; Cit = NC(=O)NCCC[C@H](N)C(=O)O; Ile(3ξ) = CCC(C)[C@H](N)C(=O)O; Thr(3ξ) = CC(O)[C@H](N)C(=O)O; ξTle = CC(C)(C)C(N)C(=O)O; Carboxymethyl = O=C(O)C*; NMeA = CN[C@@H](C)C(=O)O; Orn = NCCC[C@H](N)C(=O)O; Dab = NCC[C@H](N)C(=O)O; Dap = NC[C@H](N)C(=O)O; ξC = NC(CS)C(=O)O

One assay deals with T1, PE-labeled human PD-L1-Ig binding to Jurkat cell line over-expressing human PD-1 (Jurkat-PD-1) (Homo sapiens, UniProt Q15116).
T1 construct: expressed in transfected cells; host or cells: Jurkat
T1 sequence (Q15116 25-288): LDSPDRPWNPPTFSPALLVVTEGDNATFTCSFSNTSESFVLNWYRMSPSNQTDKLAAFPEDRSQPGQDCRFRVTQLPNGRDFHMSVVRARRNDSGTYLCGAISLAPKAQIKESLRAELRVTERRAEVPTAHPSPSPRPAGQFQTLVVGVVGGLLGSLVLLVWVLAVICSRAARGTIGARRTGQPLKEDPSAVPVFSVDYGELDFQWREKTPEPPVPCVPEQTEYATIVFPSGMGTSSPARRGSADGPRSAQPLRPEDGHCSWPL
As to the kind of experiment: Jurkat-PD-1 Cell Binding High-Content Screening Assay (CBA): Method 1. The following applies: Jurkat HPDL1 PD1 IC50 (uM) (Method 1), Jurkat-hPD-1 cells, PE-labeled PD-L1-Ig 20 nM final.
Regarding `Cc1cccc(C[C@@H]2NC(=O)[C@H](CC(=O)O)NC(=O)[C@H](Cc3ccc(OCC(=O)O)cc3)NC(=O)[C@H](Cc3ccncc3)NC(=O)CSC[C@@H](C(=O)N[C@@H](C)C(N)=O)NC(=O)[C@H](CO)NC(=O)[C@H](Cc3ccccc3)NC(=O)[C@H](CC(C)C)NC(=O)[C@H](CC(N)=O)NC(=O)[C@@H](CC(C)C)NC(=O)[C@H](C)N(C)C(=O)[C@H](Cc3ccccc3)NC(=O)[C@H](Cc3ccc(-c4ccccc4)cc3)NC(=O)[C@H](CC(C)C)NC2=O)c1` [Compound 1588] ({CH2CO}-[4Pal]Y(Carboxymethyl)D[Phe(3-Me)]L[Bip]F[NMeA][dL]NLFSCA-NH2; thioether N-14), the IC50 (as a rule, the concentration that gives 50% inhibition) was found to be 0.32 µM.

The assay is the same for the next values; noted with them: Jurkat-hPD-1 cells, PE-labeled PD-L1-Ig 20 nM final; read-out: Jurkat HPDL1 PD1 IC50 (uM) (Method 1).
`Cc1cccc(C[C@@H]2NC(=O)[C@H](CC(=O)O)NC(=O)[C@H](Cc3ccc(OCC(=O)O)cc3)NC(=O)[C@H](Cc3cccs3)NC(=O)CSC[C@@H](C(=O)N[C@@H](CN)C(N)=O)NC(=O)[C@H](C(C)O)NC(=O)[C@H](C(C)(C)O)NC(=O)[C@H](CC3CCCCC3)NC(=O)[C@H](CCN)NC(=O)[C@@H](CC(C)C)NC(=O)[C@H](C)N(C)C(=O)[C@H](CCCNC(N)=O)NC(=O)[C@H](Cc3ccc(-c4ccccc4)cc3)NC(=O)[C@H](Cc3ccc(OCC(=O)O)cc3)NC2=O)c1` (stereo partly drawn) [Compound 2169] ({CH2CO}-[2Thi]Y(Carboxymethyl)D[Phe(3-Me)]Y(Carboxymethyl)[Bip][Cit][NMeA][dL][Dab][Cha][Val(3-OH)][Thr(3ξ)]C[Dap]-NH2; thioether N-14): the IC50 is 0.01 µM. Still for that read-out and setting: next, `CC[C@H](C)[C@@H]1NC(=O)[C@H](Cc2ccc(-c3ccccc3)cc2)NC(=O)[C@H](C(C)C)NC(=O)[C@H](Cc2c[nH]c3ccccc23)NC(=O)[C@H](CC(=O)O)NC(=O)[C@H](Cc2ccc(O)cc2)NC(=O)[C@H](Cc2ccccc2)NC(=O)CSC[C@@H](C(=O)N[C@@H](C)C(N)=O)NC(=O)[C@H]([C@@H](C)O)NC(=O)[C@H](C(C)C)NC(=O)[C@H](CC(C)C)NC(=O)[C@H](CCCNC(=N)N)NC(=O)[C@@H](CC(C)C)NC(=O)[C@H](C)N(C)C1=O` [Compound 1491] ({CH2CO}-FYDWV[Bip]I[NMeA][dL]RLVTCA-NH2; thioether N-14): 0.09 µM. On the same count and under the same terms, next, `Cc1cccc(C[C@@H]2NC(=O)[C@H](CC(=O)O)NC(=O)[C@H](Cc3ccc(OCC(=O)O)cc3)NC(=O)[C@H](Cc3ccncc3)NC(=O)CSC[C@@H](C(=O)N[C@H](C)C(N)=O)NC(=O)[C@H](CO)NC(=O)[C@H](C(C)(C)O)NC(=O)[C@H](CC3CCCCC3)NC(=O)[C@H](CCN)NC(=O)[C@@H](CC(C)C)NC(=O)[C@H](C)N(C)C(=O)[C@H](Cc3ccc(OCC(=O)O)cc3)NC(=O)[C@H](Cc3ccc(-c4ccccc4)cc3)NC(=O)[C@H](Cc3ccc(C(=O)O)cc3)NC2=O)c1` [Compound 2183] ({CH2CO}-[4Pal]Y(Carboxymethyl)D[Phe(3-Me)][Phe(4-COOH)][Bip]Y(Carboxymethyl)[NMeA][dL][Dab][Cha][Val(3-OH)]SC[dA]-NH2; thioether N-14): 0.11 µM; `CC(C)C[C@@H]1NC(=O)[C@H](Cc2c[nH]c3ccccc23)NC(=O)[C@H](CC(=O)O)NC(=O)[C@H](Cc2ccc(O)cc2)NC(=O)[C@H](Cc2ccccc2)NC(=O)CSC[C@@H](C(=O)N[C@@H](C)C(N)=O)NC(=O)[C@H](CO)NC(=O)[C@H](C(C)C)NC(=O)[C@H](CC(C)C)NC(=O)[C@H](CC(=O)O)NC(=O)C(C(C)(C)C)NC(=O)[C@H](C)N(C)C(=O)[C@H](C(C)C)NC(=O)[C@H](Cc2ccc(-c3ccccc3)cc2)NC1=O` (some centres unmarked) [Compound 1827] ({CH2CO}-FYDWL[Bip]V[NMeA][ξTle]DLVSCA-NH2; thioether N-14): 0.79 µM; `CC(C)C[C@@H]1NC(=O)[C@H](CCCN)NC(=O)[C@@H](CC(C)C)NC(=O)[C@H](C)N(C)C(=O)[C@H](CCCNC(=N)N)NC(=O)[C@H](Cc2ccc(-c3ccccc3)cc2)NC(=O)[C@H](C(C)C)NC(=O)[C@H](Cc2c[nH]c3ccccc23)NC(=O)[C@H](CC(=O)O)NC(=O)[C@H](Cc2ccc(OCC(=O)O)cc2)NC(=O)[C@H](Cc2cnc[nH]2)NC(=O)CSC[C@@H](C(=O)N[C@@H](C)C(N)=O)NC(=O)[C@H]([C@@H](C)O)NC(=O)[C@H](C(C)C)NC1=O` [Compound 1148] ({CH2CO}-HY(Carboxymethyl)DWV[Bip]R[NMeA][dL][Orn]LVTCA-NH2; thioether N-14): 0.05 µM. Same read-out and setting: next, `CC(C)C[C@@H]1NC(=O)[C@H](CCN)NC(=O)[C@@H](CC(C)C)NC(=O)[C@H](C)N(C)C(=O)[C@H](Cc2ccccc2)NC(=O)[C@H](Cc2ccc(-c3ccccc3)cc2)NC(=O)[C@H](C(C)C)NC(=O)[C@H](Cc2c[nH]c3ccccc23)NC(=O)[C@H](CC(=O)O)NC(=O)[C@H](Cc2ccc(O)cc2)NC(=O)[C@H](CC(N)=O)NC(=O)CSC[C@@H](C(=O)N[C@@H](C)C(N)=O)NC(=O)[C@H]([C@@H](C)O)NC(=O)[C@H](C(C)C)NC1=O` [Compound 1272] ({CH2CO}-NYDWV[Bip]F[NMeA][dL][Dab]LVTCA-NH2; thioether N-14): 0.16 µM.

For `CC(C)C[C@H]1NC(=O)[C@H](C)N(C)C(=O)[C@H](C(C)C)NC(=O)[C@H](Cc2ccc(-c3ccccc3)cc2)NC(=O)[C@H](C(C)C)NC(=O)[C@H](Cc2c[nH]c3ccccc23)NC(=O)[C@H](CC(=O)O)NC(=O)[C@H](Cc2ccc(O)cc2)NC(=O)[C@H](Cc2ccc(OCC(=O)O)cc2)NC(=O)CSC[C@@H](C(=O)N[C@@H](C)C(N)=O)NC(=O)[C@H]([C@@H](C)O)NC(=O)[C@H](C(C)C)NC(=O)[C@H](CC2CCCCC2)NC(=O)[C@H](CCCNC(=N)N)NC1=O` [Compound 1486] ({CH2CO}-Y(Carboxymethyl)YDWV[Bip]V[NMeA][dL]R[Cha]VTCA-NH2; thioether N-14), the IC50 came out at 0.62 µM. On the same count and under the same terms, next, `CC(C)C[C@@H]1NC(=O)[C@H](CCCCN)NC(=O)[C@@H](CC(C)C)NC(=O)[C@H](C)N(C)C(=O)[C@H](CCCNC(=N)N)NC(=O)[C@H](Cc2ccc(-c3ccccc3)cc2)NC(=O)[C@H](C(C)C)NC(=O)[C@H](Cc2c[nH]c3ccccc23)NC(=O)[C@H](CC(=O)O)NC(=O)[C@H](Cc2ccc(O)cc2)NC(=O)[C@H](Cc2ccccc2)NC(=O)CSC[C@@H](C(=O)N[C@@H](CO)C(N)=O)NC(=O)[C@H]([C@@H](C)O)NC(=O)[C@H](C(C)C)NC1=O` [Compound 1184] ({CH2CO}-FYDWV[Bip]R[NMeA][dL]KLVTCS-NH2; thioether N-14): 0.13 µM. As for `CCC(C)[C@@H]1NC(=O)[C@H](Cc2ccc(-c3ccccc3)cc2)NC(=O)[C@H](C(C)C)NC(=O)[C@H](Cc2c[nH]c3ccccc23)NC(=O)[C@H](CC(=O)O)NC(=O)[C@H](Cc2ccc(O)cc2)NC(=O)[C@H](Cc2ccncc2)NC(=O)CSCC(C(=O)N[C@@H](CCCN)C(=O)O)NC(=O)[C@H](C(C)O)NC(=O)[C@H](C(C)C)NC(=O)[C@H](CC2CCCCC2)NC(=O)[C@H](CC(N)=O)NC(=O)[C@@H](CC(C)C)NC(=O)[C@H](C)N(C)C1=O` (stereo partly drawn) [Compound 2214] ({CH2CO}-[4Pal]YDWV[Bip][Ile(3ξ)][NMeA][dL]N[Cha]V[Thr(3ξ)][ξC][Orn]-OH; thioether N-14), the IC50 stood at 0.02 µM. On the same count and under the same terms, next, `CC(C)C[C@@H]1NC(=O)[C@H](CCCCN)NC(=O)[C@@H](CC(C)C)NC(=O)[C@H](C)N(C)C(=O)[C@H](CCC(=O)O)NC(=O)[C@H](Cc2ccc(-c3ccccc3)cc2)NC(=O)[C@H](C(C)C)NC(=O)[C@H](Cc2c[nH]c3ccccc23)NC(=O)[C@H](CC(=O)O)NC(=O)[C@H](Cc2ccc(O)cc2)NC(=O)[C@H](Cc2ccncc2)NC(=O)CSC[C@@H](C(=O)N[C@@H](C)C(N)=O)NC(=O)[C@H](C(C)O)NC(=O)[C@H](C(C)C)NC1=O` (stereo partly drawn) [Compound 2057] ({CH2CO}-[4Pal]YDWV[Bip]E[NMeA][dL]KLV[Thr(3ξ)]CA-NH2; thioether N-14): 0.04 µM.
